{"source": "paper PMC5590095", "about": "(Chemical Science, 2017)", "origin": "cited, not measured here", "system": "tubulin"}
{"substance": "Celogentin C", "values": [{"measurement": "inhibitory activity against tubulin polymerization", "value": "inhibitory activity against tubulin polymerization"}]}
